Laboratory results: US7393824B1, “Methods of peptide preparation” (Lytix Biopharma, priority 2000, dated 2008)
Read-outs that look alike come from different tables or passages of the source. Residues, ends and D or L forms follow the SMILES beside them.

How the values were obtained:
Type in all cases: cell-based
[1] = tested on: Meth A murine sarcoma cell line
Protocol: Peptide solutions (0.1 ml) were added and the plates incubated at 37° C. for 30 minutes, 4 hours or 24 hours. The cytotoxicity was measured using the MTT method (Mosmann et al., J. Immunol. (1986) 136, 2348-2357).

[2] = tested on: MRC-5 cells (normal fibroblasts); assay: Fibroblast assay (MTT)
Protocol: The cells were washed with PBS and then trypsinated using 2 ml trypsin (for a 80 cm culture flask). After the cells had detached from the wall, usually after ca 3 min. of incubation, 5 ml medium with FBS were added. The cells were resuspended and counted. The cells were then transferred to a centrifugation tube and spinned at 1500 rpm for 10 min. The supernatant was removed and the cells resuspended to a concentration of 1×10^5 cells/ml. 100 ul cells suspension was transferred to each well in a 96-well microtiter plate and incubated for 25 hours to allow the cells to attach. Following the incubation, the medium containing serum was removed by turning the plate upside down against a piece of tissue. 100 ul medium without serum and L-glutamine (assay medium) was added to each well, and then removed as before. This was done to remove any trace of serum. […] The rest of the assay was done as previously described for methA, except that after the 2 hour incubation following MTT addition, 80 ul medium instead of 130 ul were removed.

human red blood cells = assay: Hemolytic assay
Protocol: The hemolytic activities of the peptides were determined using fresh human red blood cells. 8 ml blood was taken from a healthy person. 4 ml blood was transferred to a polycarbonate tube containing heparin to a final concentration of 10 U/ml, and the remaining 4 ml blood was transferred to a glass tube containing EDTA with final concentration of 15% EDTA. The erythrocytes were isolated from heparin-treated blood by centrifugation in 1500 rpm for 10 min and washed three times with phosphate-buffered saline (PBS) to remove plasma and buffy coat. The cell pellet was resuspended in PBS to make the final volume of 4 ml. The peptide was diluted to a concentration of 2 mg/ml and 0.1 mg/ml. The peptide was further diluted to the concentrations as stated in Table 1. For each tube PBS was added first, then RBCs and peptide solutions. The hematocrit in the blood treated with EDTA was determined after 30 min with Sysmex K-1000, and the resuspended RBCs were diluted into 10% hematocrit. RBCs in PBS (1%) with and without peptides (Table 18) were incubated in a shaker at […] for 1 hour and then centrifuged at 4000 rpm for 5 min. The supernatant were carefully transferred to new polycarbonate tubes and the absorbance of the supernatant was measured at 540 nm. Baseline hemolysis was hemoglobin released in the presence of PBS, and 100% hemolysis was hemoglobin released in the presence of 0.1% Triton X-100.

[3] = tested on: Escherichia coli ATCC 25922; conditions: Table 2
Protocol: The bacterial strains used were: Escherichia coli ATCC 25922 and Staphylococcus aureus ATCC 25923. All strains were stored at −70° C. The bacteria were grown in 2% Bacto Peptone water (Difco 1807-17-4). All tests were performed with bacteria in mid-logarithmic growth phase. Determination of the minimum inhibitory concentration (MIC) of the peptides for bacterial strains were performed in 1% Bacto Peptone water. A standard microdilution technique with an inoculum of 2×10^6 CFU/ml was used. All assays were performed in triplets. Since the peptides are positively charged and therefore could adhere to the plastic wells, we controlled the actual concentration of the peptides in the solution by HPLC. There was no difference between the concentration of the peptides before or after adding the solution to the plastic wells.

[4] = Table 3, unit inferred, read-out: Meth A IC50
[5] = Table 3, unit inferred, read-out: Fib IC50
[6] = Table 3, unit inferred, read-out: RBC EC50

C[C@H](NC(=O)[C@H](C)NC(=O)[C@H](CCCCN)NC(=O)[C@H](CCCCN)NC(=O)[C@H](Cc1c[nH]c2ccccc12)NC(=O)[C@H](C)NC(=O)[C@H](CCCCN)NC(=O)[C@H](C)NC(=O)[C@H](Cc1c[nH]c2ccccc12)NC(=O)[C@H](CCCCN)NC(=O)[C@H](CCCCN)NC(=O)[C@H](C)NC(=O)[C@H](C)NC(=O)[C@@H](N)CCCCN)C(=O)N[C@@H](CCCCN)C(=O)N[C@@H](C)C(=O)N[C@@H](Cc1c[nH]c2ccccc12)C(=O)N[C@@H](CCCCN)C(=O)O [KA 18W6,10,17] (H-KAAKKWAKAWKKAAKAWK-OH; N-terminus and C-terminus assumed)
IC50 ([1]; Table 1, KA18 peptides, read-out: IC50 Meth A): ≥ 211 µM | IC50 [2]: > 211 µM | EC50 (human red blood cells; red cells of human): > 422 µM

C[C@H](NC(=O)[C@H](C)NC(=O)[C@H](CCCCN)NC(=O)[C@H](CCCCN)NC(=O)[C@H](C)NC(=O)[C@H](Cc1c[nH]c2ccccc12)NC(=O)[C@H](CCCCN)NC(=O)[C@H](Cc1c[nH]c2ccccc12)NC(=O)[C@H](C)NC(=O)[C@H](CCCCN)NC(=O)[C@H](CCCCN)NC(=O)[C@H](C)NC(=O)[C@H](C)NC(=O)[C@@H](N)CCCCN)C(=O)N[C@@H](CCCCN)C(=O)N[C@@H](Cc1c[nH]c2ccccc12)C(=O)N[C@@H](C)C(=O)N[C@@H](CCCCN)C(=O)O [KA 18W7,9,16] (H-KAAKKAWKWAKKAAKWAK-OH; N-terminus and C-terminus assumed)
IC50 ([1]; 4 h): 32 µM | IC50 [2]: > 211 µM | EC50 (human red blood cells; red cells of human): > 422 µM

C[C@H](NC(=O)[C@H](C)NC(=O)[C@H](CCCCN)NC(=O)[C@H](C)NC(=O)[C@H](C)NC(=O)[C@H](CCCCN)NC(=O)[C@H](CCCCN)NC(=O)[C@H](Cc1c[nH]c2ccccc12)NC(=O)[C@H](C)NC(=O)[C@H](CCCCN)NC(=O)[C@H](C)NC(=O)[C@H](C)NC(=O)[C@H](CCCCN)NC(=O)[C@H](CCCCN)NC(=O)[C@H](C)NC(=O)[C@H](C)NC(=O)[C@@H](N)CCCCN)C(=O)N[C@@H](CCCCN)C(=O)O [KA 18W10] (H-KAAKKAAKAWKKAAKAAK-OH; N-terminus and C-terminus assumed)
IC50 ([1]; 4 h): > 234 µM | IC50 [2]: > 234 µM | EC50 (human red blood cells; red cells of human): > 467 µM

C[C@H](NC(=O)[C@H](C)NC(=O)[C@H](CCCCN)NC(=O)[C@H](CCCCN)NC(=O)[C@H](C)NC(=O)[C@H](C)NC(=O)[C@@H](N)CCCCN)C(=O)N[C@@H](CCCCN)C(=O)N[C@@H](C)C(=O)N[C@@H](C)C(=O)N[C@@H](CCCCN)C(=O)N[C@@H](CCCCN)C(=O)N[C@@H](C)C(=O)N[C@@H](C)C(=O)N[C@@H](CCCCN)C(=O)N[C@@H](Cc1c[nH]c2ccccc12)C(=O)N[C@@H](C)C(=O)N[C@@H](CCCCN)C(=O)O [KA 18W16] (H-KAAKKAAKAAKKAAKWAK-OH; N-terminus and C-terminus assumed)
IC50 ([1]; 4 h): > 234 µM | IC50 [2]: > 234 µM | EC50 (human red blood cells; red cells of human): > 467 µM

C[C@H](NC(=O)[C@H](C)NC(=O)[C@H](CCCCN)NC(=O)[C@H](Cc1c[nH]c2ccccc12)NC(=O)[C@H](C)NC(=O)[C@H](CCCCN)NC(=O)[C@H](CCCCN)NC(=O)[C@H](C)NC(=O)[C@H](C)NC(=O)[C@@H](N)CCCCN)C(=O)N[C@@H](CCCCN)C(=O)N[C@@H](CCCCN)C(=O)N[C@@H](C)C(=O)N[C@@H](C)C(=O)N[C@@H](CCCCN)C(=O)N[C@@H](Cc1c[nH]c2ccccc12)C(=O)N[C@@H](C)C(=O)N[C@@H](CCCCN)C(=O)O [KA W7,16] (H-KAAKKAWKAAKKAAKWAK-OH; N-terminus and C-terminus assumed)
IC50 ([1]; 4 h): > 222 µM | IC50 [2]: > 222 µM | EC50 (human red blood cells; red cells of human): > 444 µM

CSCC[C@H](NC(=O)[C@H](CCCNC(=N)N)NC(=O)[C@H](Cc1c[nH]c2ccccc12)NC(=O)[C@H](C)NC(=O)[C@H](Cc1c[nH]c2ccccc12)NC(=O)[C@H](CCCNC(=N)N)NC(=O)[C@H](Cc1ccccc1)NC(=O)[C@H](C)NC(=O)[C@H](CCCCN)NC(=O)[C@H](CCCNC(=N)N)NC(=O)[C@H](Cc1c[nH]c2ccccc12)NC(=O)[C@H](C)NC(=O)[C@@H]1CCCN1)C(=O)N[C@@H](CC(C)C)C(=O)N[C@@H](CCCCN)C(=O)N[C@@H](CCCCN)C(=O)N[C@@H](C)C(=O)N[C@@H](C)C(=O)O [LFB (14-31)m, PAWRKAFRWAWRMLKKAA] (H-PAWRKAFRWAWRMLKKAA-OH)
toxicity to fibroblasts [2]: highly toxic to fibroblasts

CC[C@H](C)[C@H](NC(=O)[C@H](CCCNC(=N)N)NC(=O)[C@H](Cc1ccccc1)NC(=O)[C@H](C)NC(=O)[C@H](CCCCN)NC(=O)[C@H](CCCNC(=N)N)NC(=O)[C@H](Cc1c[nH]c2ccccc12)NC(=O)[C@H](C)NC(=O)[C@@H]1CCCN1)C(=O)N[C@@H](C)C(=O)N[C@@H](Cc1c[nH]c2ccccc12)C(=O)N[C@@H](CCCNC(=N)N)C(=O)N[C@@H](CCSC)C(=O)N[C@@H](CC(C)C)C(=O)N[C@@H](CCCCN)C(=O)N[C@@H](CCCCN)C(=O)N[C@@H](C)C(=O)N[C@@H](C)C(=O)O [W9→I9] (H-PAWRKAFRIAWRMLKKAA-OH; N-terminus and C-terminus assumed)
EC50 (human red blood cells; red cells of human): 155 µM

CC[C@H](C)[C@H](NC(=O)[C@H](C)NC(=O)[C@H](Cc1c[nH]c2ccccc12)NC(=O)[C@H](CCCNC(=N)N)NC(=O)[C@H](Cc1ccccc1)NC(=O)[C@H](C)NC(=O)[C@H](CCCCN)NC(=O)[C@H](CCCNC(=N)N)NC(=O)[C@H](Cc1c[nH]c2ccccc12)NC(=O)[C@H](C)NC(=O)[C@@H]1CCCN1)C(=O)N[C@@H](CCCNC(=N)N)C(=O)N[C@@H](CCSC)C(=O)N[C@@H](CC(C)C)C(=O)N[C@@H](CCCCN)C(=O)N[C@@H](CCCCN)C(=O)N[C@@H](C)C(=O)N[C@@H](C)C(=O)O [W11→I11] (H-PAWRKAFRWAIRMLKKAA-OH; N-terminus and C-terminus assumed)
IC50 ([1]; 4 h): 6 µM | Mic E-coli [3]: ⅖ | EC50 (human red blood cells; red cells of human): 63.6 µM

(KAAKKAA)3 Bip9,16 [KA27]
IC50 [1, 4]: 24 µM | IC50 [2, 5]: > 429 µM | EC50 (human red blood cells; [6]): > 429 µM

(KAAKKAA)3 F2,9,16,20 [KA17]
IC50 [1, 4]: 37 µM | IC50 [2, 5]: > 429 µM | EC50 (human red blood cells; [6]): > 429 µM

(KAAKKAA)3 W2,3,20 [KA15]
IC50 [1, 4]: 16 µM | IC50 [2, 5]: 246 µM | EC50 (human red blood cells; [6]): > 422 µM

(KAAKKAA)3 W2,3,20,21 [KA19]
IC50 [1, 4]: 19 µM | IC50 [2, 5]: 374 µM | EC50 (human red blood cells; [6]): > 402 µM

(KAAKKAA)3 W2,9,16 [KA 5]
IC50 [1, 4]: 15 µM | IC50 [2, 5]: 302 µM | EC50 (human red blood cells; [6]): > 422 µM

(KAAKKAA)3 W2,9,16,20 [KA 8]
IC50 [1, 4]: 4 µM | IC50 [2, 5]: 23 µM | EC50 (human red blood cells; [6]): > 402 µM

(KAAKKAA)3 W6,10,17 [KA 31]
IC50 [1, 4]: 147 µM | IC50 [2, 5]: > 422 µM | EC50 (human red blood cells; [6]): > 422 µM

(KAAKKAA)3 W7,9,14,16 [KA 4]
IC50 [1, 4]: 5 µM | IC50 [2, 5]: 30 µM | EC50 (human red blood cells; [6]): > 402 µM

(KAAKKAA)3 W7,9,16 [KA 32]
IC50 [1, 4]: 28 µM | IC50 [2, 5]: > 422 µM | EC50 (human red blood cells; [6]): > 422 µM

(KAAKKAA)3 W7,10,17 [KA23]
IC50 [1, 4]: 110 µM | IC50 [2, 5]: > 422 µM | EC50 (human red blood cells; [6]): > 422 µM

(KAAKKAA)3 W7,16,17 [KA24]
IC50 [1, 4]: 29 µM | IC50 [2, 5]: > 422 µM | EC50 (human red blood cells; [6]): > 422 µM

(KAAKKAA)3 W9,16 [KA 7]
IC50 [1, 4]: > 222 µM | IC50 [2, 5]: > 444 µM | EC50 (human red blood cells; [6]): > 444 µM

(OAAOOAA)3 W7,9,14,16 [KA14]
IC50 [1, 4]: 5 µM | IC50 [2, 5]: 60 µM | EC50 (human red blood cells; [6]): > 424 µM

KKAWKWAKKAWKWAKKA [KA18]
IC50 [1, 4]: 8 µM | IC50 [2, 5]: 115 µM | EC50 (human red blood cells; [6]): > 451 µM

KKWAKKAWKWAKKAW [KA22, 15-mer]
IC50 [1, 4]: 30 µM | IC50 [2, 5]: > 514 µM | EC50 (human red blood cells; [6]): > 514 µM

WKWAKKAAKWAWKAA [KA20, 15-mer]
IC50 [1, 4]: 140 µM | IC50 [2, 5]: 307 µM | EC50 (human red blood cells; [6]): > 546 µM

WKWAKKAWKWAKKAA [KA21, 15-mer]
IC50 [1, 4]: 32 µM | IC50 [2, 5]: > 530 µM | EC50 (human red blood cells; [6]): > 530 µM
